From patent publication US12617795B2, “Substituted 6,7-dihydro-5H-pyrrolo[3,4-d]pyrimidines, 5,7-dihydrofuro[3,4-d]pyrimidines, and pyrido[2,3-d]pyrimidines as KCC2 modulators” (Astrazeneca AB, priority 2020, dated 2026)

Target: T1, KCC2 (Homo sapiens, UniProt Q9H2X9)
T1 construct: expressed in transfected cells; host or cells: HEK293 cells electroporated (Maxcyte STX) with the pcDNA3.1 KCC2 plasmid
T1 sequence (Q9H2X9 1-1139): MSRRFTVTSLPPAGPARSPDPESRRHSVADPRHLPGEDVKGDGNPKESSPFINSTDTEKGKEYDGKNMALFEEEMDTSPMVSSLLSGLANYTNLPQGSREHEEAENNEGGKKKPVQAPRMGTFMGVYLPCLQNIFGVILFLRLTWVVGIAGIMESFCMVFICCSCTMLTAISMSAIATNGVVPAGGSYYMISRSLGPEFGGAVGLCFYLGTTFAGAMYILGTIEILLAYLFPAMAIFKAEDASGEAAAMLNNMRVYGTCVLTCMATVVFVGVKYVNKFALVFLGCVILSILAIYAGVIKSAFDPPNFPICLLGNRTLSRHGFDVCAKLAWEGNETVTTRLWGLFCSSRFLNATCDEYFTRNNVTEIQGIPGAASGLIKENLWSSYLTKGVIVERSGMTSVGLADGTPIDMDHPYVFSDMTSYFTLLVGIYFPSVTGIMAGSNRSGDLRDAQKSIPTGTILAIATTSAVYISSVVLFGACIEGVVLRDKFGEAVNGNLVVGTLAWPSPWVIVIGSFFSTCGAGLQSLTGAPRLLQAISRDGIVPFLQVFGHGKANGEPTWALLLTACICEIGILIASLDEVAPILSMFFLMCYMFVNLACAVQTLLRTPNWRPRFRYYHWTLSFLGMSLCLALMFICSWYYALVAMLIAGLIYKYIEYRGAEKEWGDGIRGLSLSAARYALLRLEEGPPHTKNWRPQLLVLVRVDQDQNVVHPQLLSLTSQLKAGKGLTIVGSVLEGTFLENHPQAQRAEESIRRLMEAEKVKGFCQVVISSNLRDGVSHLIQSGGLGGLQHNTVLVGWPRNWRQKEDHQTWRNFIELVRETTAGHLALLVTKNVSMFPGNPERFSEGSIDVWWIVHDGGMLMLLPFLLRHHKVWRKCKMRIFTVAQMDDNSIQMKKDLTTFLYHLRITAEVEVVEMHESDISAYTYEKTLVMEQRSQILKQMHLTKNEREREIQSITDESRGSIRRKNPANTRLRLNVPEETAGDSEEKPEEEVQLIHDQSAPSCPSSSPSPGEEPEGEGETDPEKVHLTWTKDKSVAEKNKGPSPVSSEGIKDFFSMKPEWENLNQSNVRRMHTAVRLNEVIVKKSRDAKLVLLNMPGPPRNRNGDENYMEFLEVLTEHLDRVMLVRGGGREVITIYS
Assay: KCC2 thallium transport FLIPR-based assay (Tl+ influx in HEK293 cells expressing KCC2)
Format: cell-based
Settings: 90 min compound incubation at RT, thallium flux at 120 s used to determine EC50
Outline: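 Transient electroporation of codon-optimised human KCC2 into HEK293 cells, plated and cultured 48 h before dye loading (1 h, RT). Compounds run as a 12-point 1:2 series from 100 μM top, 90 min RT in buffer containing bumetanide; Tl+ flux read by FLIPR after stimulus addition, 1 s intervals over 120 s, with the 120 s signal used for EC50.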

Row | SMILES | EC50
1 | CC(C)N1Cc2c(Nc3ccc(C4CCCCC4)cc3)nc(-c3ccnc(C4CC4)c3)nc2C1=O [Example 42, 4-[(4-cyclohexylphenyl)amino]-2-(2-cyclopropylpyridin-4-yl)-6-(propan-2-yl)-5,6-dihydro-7H-pyrrolo[3,4-d]pyrimidin-7-one] | 633 nM
2 | CC(C)N1Cc2c(Nc3ccc(C4CCCCC4)cc3)nc(C3=CCOCC3)nc2C1=O [Example 45, 4-[(4-cyclohexylphenyl)amino]-2-(3,6-dihydro-2H-pyran-4-yl)-6-(propan-2-yl)-5,6-dihydro-7H-pyrrolo[3,4-d]pyrimidin-7-one] | 1150 nM
3 | CCN(CC)c1nc(Nc2ccc(C(C)C)cc2)c2c(n1)C(=O)N(C(C)C)C2 [Example 1, 2-(Diethylamino)-6-isopropyl-4-((4-isopropylphenyl)amino)-5,6-dihydro-7H-pyrrolo[3,4-d]pyrimidin-7-one] | 1710 nM
4 | CC(C)c1ccc(Nc2nc(N3CCOC(C4CC4)C3)nc3c2CN(C(C)C)C3=O)cc1 (centres unmarked) [Example 10, 2-(2-cyclopropylmorpholin-4-yl)-6-(propan-2-yl)-4-{[4-(propan-2-yl)phenyl]amino}-5,6-dihydro-7H-pyrrolo[3,4-d]pyrimidin-7-one] | 2990 nM
5 | CC(C)N1Cc2c(Nc3ccc(C4CCCCC4)cc3)nc(N3CCO[C@H](CNC(=O)OC(C)(C)C)C3)nc2C1=O [Example 17, tert-butyl {[(2R)-4-{4-[(4-cyclohexylphenyl)amino]-7-oxo-6-(propan-2-yl)-6,7-dihydro-5H-pyrrolo[3,4-d]pyrimidin-2-yl}morpholin-2-yl]methyl}carbamate] | 1090 nM
6 | CC(C)c1ccc(Nc2nc(-c3ccncc3)nc3c2CN(C(C)C)C3=O)cc1 [Example 40, 6-isopropyl-4-((4-isopropylphenyl)amino)-2-(pyridin-4-yl)-5,6-dihydro-7H-pyrrolo[3,4-d]pyrimidin-7-one] | 6360 nM
7 | CC(C)N1Cc2c(Nc3ccc(C4CCCCC4)cc3)nc(N3CCSC3)nc2C1=O [Example 19, 4-[(4-cyclohexylphenyl)amino]-6-(propan-2-yl)-2-(1,3-thiazolidin-3-yl)-5,6-dihydro-7H-pyrrolo[3,4-d]pyrimidin-7-one] | 2040 nM
8 | CC(C)N1Cc2c(Nc3ccc(C4CCCCC4)cc3)nc(N(C)Cc3ccon3)nc2C1=O [Example 22, 4-[(4-cyclohexylphenyl)amino]-2-{methyl[(1,2-oxazol-3-yl)methyl]amino}-6-(propan-2-yl)-5,6-dihydro-7H-pyrrolo[3,4-d]pyrimidin-7-one] | 2790 nM
9 | CC(=O)NCCC1CN(c2nc(Nc3ccc(C4CCCCC4)cc3)c3c(n2)C(=O)N(C(C)C)C3)CCO1 (centres unmarked) [Example 39, N-[2-(4-{4-[(4-cyclohexylphenyl)amino]-7-oxo-6-(propan-2-yl)-6,7-dihydro-5H-pyrrolo[3,4-d]pyrimidin-2-yl}morpholin-2-yl)ethyl]acetamide] | 9900 nM
10 | CC(C)N1Cc2c(Nc3ccc(C4CCCCC4)cc3)nc(-c3cnn(C)c3)nc2C1=O [Example 47, 4-[(4-cyclohexylphenyl)amino]-2-(1-methyl-1H-pyrazol-4-yl)-6-(propan-2-yl)-5,6-dihydro-7H-pyrrolo[3,4-d]pyrimidin-7-one] | 3160 nM
11 | CC(C)N1Cc2c(Nc3ccc(C4CCCCC4)cc3)nc(-c3cnco3)nc2C1=O [Example 48, 4-[(4-cyclohexylphenyl)amino]-2-(1,3-oxazol-5-yl)-6-(propan-2-yl)-5,6-dihydro-7H-pyrrolo[3,4-d]pyrimidin-7-one] | 6300 nM

Other lines, results leading:

Row | EC50 | SMILES
12 | 1010 nM | C[C@@H]1CN(c2nc(Nc3ccc(C4CCCCC4)cc3)c3cc(C#N)cnc3n2)CCO1 [Example 101, (R)-4-((4-cyclohexylphenyl)amino)-2-(2-methylmorpholino)pyrido[2,3-d]pyrimidine-6-carbonitrile]
13 | 9920 nM | C1=C(c2nc3c(c(Nc4ccc(C5CCC5)cc4)n2)COC3)CCOC1 [Example 91, N-(4-cyclobutylphenyl)-2-(3,6-dihydro-2H-pyran-4-yl)-5,7-dihydrofuro[3,4-d]pyrimidin-4-amine]
14 | 8180 nM | CC(C)N1Cc2c(Nc3ccc(C(C)(C)C)cc3)nc(N3CCOCC3)nc2C1=O [Example 87, 4-[(4-tert-butylphenyl)amino]-2-(morpholin-4-yl)-6-(propan-2-yl)-5,6-dihydro-7H-pyrrolo[3,4-d]pyrimidin-7-one]
15 | 5660 nM | CC(C)Oc1ccc(Nc2nc(N3CCOC(C4CC4)C3)nc3c2CN(C(C)C)C3=O)cc1 (centres unmarked) [Example 62, 2-(2-cyclopropylmorpholin-4-yl)-6-(propan-2-yl)-4-({4-[(propan-2-yl)oxy]phenyl}amino)-5,6-dihydro-7H-pyrrolo[3,4-d]pyrimidin-7-one]
16 | 1830 nM | C#CCCC1(CCOc2ccc(-c3ccc(Nc4nc(N5CCOCC5)nc5c4CN(C(C)C)C5=O)cc3)cc2)N=N1 [Example 70, 4-[(4′-{2-[3-(but-3-yn-1-yl)-3H-diaziren-3-yl]ethoxy}[1,1′-biphenyl]-4-yl)amino]-2-(morpholin-4-yl)-6-(propan-2-yl)-5,6-dihydro-7H-pyrrolo[3,4-d]pyrimidin-7-one]
17 | 1300 nM | C[C@@H]1CN(c2nc3c(c(Nc4ccc(-c5ccc(OCCCCCC(F)(F)F)cc5)cc4)n2)COC3)CCO1 [Example 94, 2-[(2R)-2-methylmorpholin-4-yl]-N-{4′-[(6,6,6-trifluorohexyl)oxy][1,1′-biphenyl]-4-yl}-5,7-dihydrofuro[3,4-d]pyrimidin-4-amine]
18 | 7980 nM | CC(C)c1ccc(Nc2nc(C3=CCOCC3)nc3c2CN(C(C)C)C3=O)cc1 [Example 50, 2-(3,6-dihydro-2H-pyran-4-yl)-6-(propan-2-yl)-4-{[4-(propan-2-yl)phenyl]amino}-5,6-dihydro-7H-pyrrolo[3,4-d]pyrimidin-7-one]
19 | 1530 nM | C[C@@H]1CN(c2nc(Nc3ccc(C4CCCCC4)cc3)c3c(n2)C(=O)N(CCCN(C)C)C3)CCO1 [Example 72, (R)-4-((4-cyclohexylphenyl)amino)-6-(3-(dimethylamino)propyl)-2-(2-methylmorpholino)-5,6-dihydro-7H-pyrrolo[3,4-d]pyrimidin-7-one]
20 | 7310 nM | CC(C)N1Cc2nc(N3CCO[C@H](C)C3)nc(Nc3ccc(C4CCCCC4)cc3)c2C1 [Example 110, (R)—N-(4-cyclohexylphenyl)-6-isopropyl-2-(2-methylmorpholino)-6,7-dihydro-5H-pyrrolo[3,4-d]pyrimidin-4-amine]
21 | 2920 nM | C[C@@H]1CN(c2nc(Nc3ccc(C4CCCCC4)cc3)c3cccnc3n2)CCO1 [Example 96, N-(4-cyclohexylphenyl)-2-[(2R)-2-methylmorpholin-4-yl]pyrido[2,3-d]pyrimidin-4-amine]
22 | 3570 nM | CN1CCC(N2Cc3nc(N4CCOC(C5CC5)C4)nc(Nc4ccc(C5CCCCC5)cc4)c3C2)CC1 (centres unmarked) [Example 112, N-(4-cyclohexylphenyl)-2-(2-cyclopropylmorpholino)-6-(1-methylpiperidin-4-yl)-6,7-dihydro-5H-pyrrolo[3,4-d]pyrimidin-4-amine]
23 | 6340 nM | CC(C)N1Cc2nc(N3CCOCC3)nc(Nc3ccc(C4CCCCC4)cc3)c2C1 [Example 109, N-(4-cyclohexylphenyl)-6-isopropyl-2-morpholino-6,7-dihydro-5H-pyrrolo[3,4-d]pyrimidin-4-amine]
24 | 973 nM | CC(C)N1Cc2c(Nc3ccc(Oc4ccc(F)cc4)cc3)nc(N3CCO[C@H](C)C3)nc2C1=O [Example 51, (R)-4-((4-(4-fluorophenoxy)phenyl)amino)-6-isopropyl-2-(2-methylmorpholino)-5,6-dihydro-7H-pyrrolo[3,4-d]pyrimidin-7-one]
25 | 1800 nM | Cc1ccccc1-c1ccc(Nc2nc(C3=CCOCC3)nc3c2CN(C(C)C)C3=O)cc1 [Example 80, 2-(3,6-dihydro-2H-pyran-4-yl)-6-isopropyl-4-((2′-methyl-[1,1′-biphenyl]-4-yl)amino)-5,6-dihydro-7H-pyrrolo[3,4-d]pyrimidin-7-one]
26 | 2470 nM | C#CCCC1(CCOc2ccc(-c3ccc(Nc4nc(C5=CCOCC5)nc5c4CN(C(C)C)C5=O)cc3)cc2)N=N1 [Example 81, 4-((4′-(2-(3-(but-3-yn-1-yl)-3H-diazirin-3-yl)ethoxy)-[1,1′-biphenyl]-4-yl)amino)-2-(3,6-dihydro-2H-pyran-4-yl)-6-isopropyl-5,6-dihydro-7H-pyrrolo[3,4-d]pyrimidin-7-one]
